In patent US20060030616A1, “Anhydride modified cantharidin analogues useful in the treatment of cancer” (priority 1998, published 2006):
Where two headings read alike, the source gives them in different places.

Experiments:
L1210 cells [1] = experiment: Checkpoint abrogation after 6 Gy radiation, flow cytometry; assay type: cell-based, murine; details: 12 h after drug; for Cell Cycle Distribution, G1 / Cell Cycle Distribution, G2 + M / Cell Cycle Distribution, S / Cell Cycle Distribution, sub G1 / Checkpoint remark: 18 h after 6Gy; for Checkpoint abrogation: L1210, 6 Gy
Method: (§1) The cells are fixed in 70% ethanol and stored at −20° C. until analysis is performed (1-2 weeks). After fixing, the cells are pelleted and incubated in PBS containing propidium iodide ([…]) and RNase A (200 mg/ml) for at least 30 min at room temperature. The samples (2×10^4 events) are analysed using a Becton Dickson FACScan, fluorescence is collected in fluorescence detector 2 (FL2), filter 575/30 nm band pass. Cell cycle distribution is assessed using Cell Quest software (Becton Dickson).
(§2) The ability of the protein phosphatase inhibitors to abrogate the G1 or G2 checkpoint of the cell cycle may be determined by cell cycle analysis using flow cytometry. Briefly, asynchronous cell cultures are harvested 18 h after 6 Gy irradiation and/or 12 h incubation with the protein phosphatase inhibitor. Depending upon the p53 status of the cell line, radiation treatment alone will induce arrest in either G1 and/or G2 phase of the cell cycle.
(§3) If the protein phosphatase inhibitor abrogates the G2 checkpoint then the cells will not arrest in the G2 phase of the cell cycle and the cells will continue through the cell cycle and accumulate in the G1 phase of the cell cycle only. Similarily if the protein phosphatase inhibitors abrogates the G1 checkpoint then the cells will not arrest in the G1 phase of the cell cycle and accumulate in the G2 phase of the cell cycle only. Cell cycle analysis using propidium iodide labelling of DNA has been used extensively in our laboratory to assess the effect of specific anticancer agents that induce S-phase cell cycle arrest and apoptotic cell death (Sakoff, Ackland and Stewart, 1998). Experiments were performed on a Becton Dickinson FACScan and using Cell Quest software.
(§4) The cells were treated with 6 Gy of radiation and then treated with cantharidin 6 h later. The ability to abrogate cell cycle arrest was assessed is 12 h after the addition of the drugs.

HL60 cells = experiment: Cell cycle analysis, flow cytometry of propidium iodide stained cells; assay type: cell-based, human; details: for Cell Cycle Distribution, G1 / Cell Cycle Distribution, G2 + M / Cell Cycle Distribution, S / Cell Cycle Distribution, sub G1 / Cell cycle remark: 12 h; for Cell cycle response: HL60, 12 h exposure
HCT116 cells = experiment: Checkpoint abrogation after 6 Gy radiation, flow cytometry; assay type: cell-based, human; details: 12 h after drug; for Cell Cycle Distribution, G1 / Cell Cycle Distribution, G2 + M / Cell Cycle Distribution, S / Cell Cycle Distribution, sub G / Checkpoint remark: 18 h after 6Gy; for Checkpoint abrogation: HCT116, 6 Gy
Method: as §1, §2, §3, §4

L1210 cells [2] = experiment: MTT cytotoxicity assay, 72 h; assay type: cell-based, murine; details: L1210, p53 wt, read-out: IC50 (mean ± SE) after 72 h continuous exposure
Method: Cells in a subconfluent phase are transferred to 96-well microtitre plates. L1210 cells are plated at a density of 1000 cells/well in 100 μl medium, while all other cell lines are plated at a density of 2000-25000 cells/well. The cells are left for 24 h prior to treatment to ensure exponential growth has been achieved, 24 h after plating (day 0), 100 μl of phosphatase inhibitor is added to each well, control wells received 100 μl of medium only. Drug exposure time is 72 h (day 3). The effect of phosphatase inhibition is tested in triplicate over a concentration range of […]−1×10^−8 M. Growth inhibitory effects are evaluated using the MTT assay and absorbance read at […]. The IC50 is the drug concentration at which cell growth is 50% inhibited based on the difference of optical density on day 0 and day 3 of drug exposure. Cytotoxicity is evaluated using a spectrophotometric assay which determines the percentage of cell growth following exposure of the cells to various concentrations of the phosphatase inhibitors for a period of 72 hours. The subsequent dose response curve is used to calculate IC50 values (the drug concentration at which cell growth is 50% inhibited).
Anti-cancer screening of the protein phosphatase inhibitors is assessed using the MTT assay. This assay determines cell viability by the ability of mitochondrial dehydrogenase to produce formazan crystals from 3-(4,5-dimethylthiazol-2-yl)-2,5-diphenyltetrazolium bromide. The viable cell number/well is directly proportional to the production of formazan, which following solubilization, can be measured spectrophotometrically (540 nm). This technique is also used by the National Cancer Institute to screen for new anticancer agents.
As described herein a number of cantharidin analogues have been synthesised and tested for their anticancer activity in nine cancer cell lines using the MTT assay after 72 h exposure. These new analogues are shown in FIG. 2 and have been designated MK-1 through to MK-9.

## O=C1OC(O)C2C3CCC(O3)C12 (stereo not drawn) [MK-4]
L1210 cells [1]; L1210, 50 μM
  Cell Cycle Distribution, G1: 21.2 percentage of total
  Cell Cycle Distribution, G2 + M: 50.3 percentage of total
  Cell Cycle Distribution, S: 28.5 percentage of total
  Cell Cycle Distribution, sub G1: 1.8 percentage of total
L1210 cells [1]; L1210, 100 μM
  Cell Cycle Distribution, G1: 22.0 percentage of total
  Cell Cycle Distribution, G2 + M: 49.7 percentage of total
  Cell Cycle Distribution, S: 27.4 percentage of total
  Cell Cycle Distribution, sub G1: 2.4 percentage of total
L1210 cells [1]; L1210, 250 μM
  Cell Cycle Distribution, G1: 21.2 percentage of total
  Cell Cycle Distribution, G2 + M: 52.7 percentage of total
  Cell Cycle Distribution, S: 24.6 percentage of total
  Cell Cycle Distribution, sub G1: 3.1 percentage of total
L1210 cells [1]; L1210, 500 μM
  Cell Cycle Distribution, G1: 18.2 percentage of total
  Cell Cycle Distribution, G2 + M: 61.8 percentage of total
  Cell Cycle Distribution, S: 16.0 percentage of total
  Cell Cycle Distribution, sub G1: 5.0 percentage of total
  Checkpoint remark: G1 abrogation
L1210 cells [1]
  Checkpoint abrogation: abrogated G1 arrest
HL60 cells; HL60, 50 μM
  Cell Cycle Distribution, G1: 44.7 percentage of total
  Cell Cycle Distribution, G2 + M: 32.3 percentage of total
  Cell Cycle Distribution, S: 22.3 percentage of total
  Cell Cycle Distribution, sub G1: 1.9 percentage of total
HL60 cells; HL60, 100 μM
  Cell Cycle Distribution, G1: 45.3 percentage of total
  Cell Cycle Distribution, G2 + M: 30.6 percentage of total
  Cell Cycle Distribution, S: 22.6 percentage of total
  Cell Cycle Distribution, sub G1: 2.5 percentage of total
HL60 cells; HL60, 250 μM
  Cell Cycle Distribution, G1: 40.0 percentage of total
  Cell Cycle Distribution, G2 + M: 32.0 percentage of total
  Cell Cycle Distribution, S: 23.0 percentage of total
  Cell Cycle Distribution, sub G1: 6.0 percentage of total
HL60 cells; HL60, 500 μM
  Cell Cycle Distribution, G1: 27.8 percentage of total
  Cell Cycle Distribution, G2 + M: 44.4 percentage of total
  Cell Cycle Distribution, S: 22.8 percentage of total
  Cell Cycle Distribution, sub G1: 6.1 percentage of total
  Cell cycle remark: G2 arrest
HL60 cells
  Cell cycle response: G2 arrest
HCT116 cells; HCT116, 50 μM
  Cell Cycle Distribution, G1: 26.7 percentage of total
  Cell Cycle Distribution, G2 + M: 61.3 percentage of total
  Cell Cycle Distribution, S: 5.8 percentage of total
  Cell Cycle Distribution, sub G: 6.3 percentage of total
HCT116 cells; HCT116, 100 μM
  Cell Cycle Distribution, G1: 18.4 percentage of total
  Cell Cycle Distribution, G2 + M: 69.3 percentage of total
  Cell Cycle Distribution, S: 9.7 percentage of total
  Cell Cycle Distribution, sub G: 3.3 percentage of total
HCT116 cells; HCT116, 250 μM
  Cell Cycle Distribution, G1: 16.3 percentage of total
  Cell Cycle Distribution, G2 + M: 67.8 percentage of total
  Cell Cycle Distribution, S: 8.2 percentage of total
  Cell Cycle Distribution, sub G: 8.2 percentage of total
HCT116 cells; HCT116, 500 μM
  Cell Cycle Distribution, G1: 13.1 percentage of total
  Cell Cycle Distribution, G2 + M: 61.9 percentage of total
  Cell Cycle Distribution, S: 10.6 percentage of total
  Cell Cycle Distribution, sub G: 14.9 percentage of total
  Checkpoint remark: G1 abrogation
HCT116 cells
  Checkpoint abrogation: abrogated G1 arrest
L1210 cells [2]
  IC50: 680 ± 97 µM

## C[C@@]12C(=O)OC(=O)[C@]1(C)[C@H]1CC[C@@H]2O1 [Cantharidin, exo.exo-2.3-dimethyl-7-oxobicyclo[2.2.1]heptane-2,3-dicarboxylic acid anhydride]
L1210 cells [1]; L1210, 1 μM
  Cell Cycle Distribution, G1: 27.2 percentage of total
  Cell Cycle Distribution, G2 + M: 37.5 percentage of total
  Cell Cycle Distribution, S: 25.6 percentage of total
  Cell Cycle Distribution, sub G1: 1.6 percentage of total
L1210 cells [1]; L1210, 5 μM
  Cell Cycle Distribution, G1: 25.8 percentage of total
  Cell Cycle Distribution, G2 + M: 41.5 percentage of total
  Cell Cycle Distribution, S: 31.9 percentage of total
  Cell Cycle Distribution, sub G1: 2.4 percentage of total
L1210 cells [1]; L1210, 10 μM
  Cell Cycle Distribution, G1: 24.9 percentage of total
  Cell Cycle Distribution, G2 + M: 43.7 percentage of total
  Cell Cycle Distribution, S: 29.4 percentage of total
  Cell Cycle Distribution, sub G1: 3.4 percentage of total
L1210 cells [1]; L1210, 50 μM
  Cell Cycle Distribution, G1: 4.1 percentage of total
  Cell Cycle Distribution, G2 + M: 77.4 percentage of total
  Cell Cycle Distribution, S: 15.6 percentage of total
  Cell Cycle Distribution, sub G1: 4.9 percentage of total
  Checkpoint remark: G1 abrogation
L1210 cells [1]
  Checkpoint abrogation: abrogated radiation induced G1 arrest
HL60 cells; HL60, 1 μM
  Cell Cycle Distribution, G1: 44.0 percentage of total
  Cell Cycle Distribution, G2 + M: 29.7 percentage of total
  Cell Cycle Distribution, S: 26.1 percentage of total
  Cell Cycle Distribution, sub G1: 1.5 percentage of total
HL60 cells; HL60, 5 μM
  Cell Cycle Distribution, G1: 41.4 percentage of total
  Cell Cycle Distribution, G2 + M: 30.6 percentage of total
  Cell Cycle Distribution, S: 27.7 percentage of total
  Cell Cycle Distribution, sub G1: 1.7 percentage of total
HL60 cells; HL60, 10 μM
  Cell Cycle Distribution, G1: 41.8 percentage of total
  Cell Cycle Distribution, G2 + M: 30.4 percentage of total
  Cell Cycle Distribution, S: 27.5 percentage of total
  Cell Cycle Distribution, sub G1: 1.7 percentage of total
  Cell cycle remark: G2 arrest
HL60 cells; HL60, 50 μM
  Cell Cycle Distribution, G1: 16.2 percentage of total
  Cell Cycle Distribution, G2 + M: 34.7 percentage of total
  Cell Cycle Distribution, S: 31.6 percentage of total
  Cell Cycle Distribution, sub G1: 19.3 percentage of total
  Cell cycle remark: Cell Death
HL60 cells
  Cell cycle response: G2 arrest
HCT116 cells; HCT116, 1 μM
  Cell Cycle Distribution, G1: 26.1 percentage of total
  Cell Cycle Distribution, G2 + M: 58.2 percentage of total
  Cell Cycle Distribution, S: 13.8 percentage of total
  Cell Cycle Distribution, sub G: 4.2 percentage of total
HCT116 cells; HCT116, 5 μM
  Cell Cycle Distribution, G1: 23.6 percentage of total
  Cell Cycle Distribution, G2 + M: 63.3 percentage of total
  Cell Cycle Distribution, S: 10.4 percentage of total
  Cell Cycle Distribution, sub G: 4.0 percentage of total
HCT116 cells; HCT116, 10 μM
  Cell Cycle Distribution, G1: 25.7 percentage of total
  Cell Cycle Distribution, G2 + M: 62.2 percentage of total
  Cell Cycle Distribution, S: 9.4 percentage of total
  Cell Cycle Distribution, sub G: 4.2 percentage of total
HCT116 cells; HCT116, 50 μM
  Cell Cycle Distribution, G1: 12.2 percentage of total
  Cell Cycle Distribution, G2 + M: 63.3 percentage of total
  Cell Cycle Distribution, S: 15.6 percentage of total
  Cell Cycle Distribution, sub G: 12.0 percentage of total
  Checkpoint remark: G1 abrogation
HCT116 cells
  Checkpoint abrogation: abrogated radiation induced G1 arrest
L1210 cells [2]; Mus musculus, 72 h
  IC50: 18 µM
